Measured values: ChEMBL document CHEMBL5131484, “Design and synthesis of adamantane-1-carbonyl thiourea derivatives as potent and selective inhibitors of h-P2X4 and h-P2X7 receptors: An Emerging therapeutic tool for treatment of inflammation and neurological disorders” (Eur J Med Chem, 2022)

Experiments:
[1] = Cytotoxicity against human 1321N1 cells assessed as reduction in cell viability at 50 uM incubated for 24 hrs by MTT assay relative to control; type: functional
[2] = Cytotoxicity against human HEK293 cells assessed as reduction in cell viability at 50 uM incubated for 24 hrs by MTT assay relative to control; type: toxicity, cell-based; details: read-out: INH
[3] = system: HeLa; assay: Cytotoxicity against human HeLa cells assessed as reduction in cell viability at 50 uM incubated for 24 hrs by MTT assay relative to control; type: functional
[4] = biological target: T1, P2X purinoceptor 4 (Homo sapiens) (UniProt Q99571); assay: Negative allosteric modulation activity at human P2X4 receptor expressed in human 1321N1 cells assessed as ATP induced calcium response by measuring maximal ATP efficacy at 40 nM relative to control; type: cell-based; details: filed as negative allosteric modulator
T1 sequence (whole entry): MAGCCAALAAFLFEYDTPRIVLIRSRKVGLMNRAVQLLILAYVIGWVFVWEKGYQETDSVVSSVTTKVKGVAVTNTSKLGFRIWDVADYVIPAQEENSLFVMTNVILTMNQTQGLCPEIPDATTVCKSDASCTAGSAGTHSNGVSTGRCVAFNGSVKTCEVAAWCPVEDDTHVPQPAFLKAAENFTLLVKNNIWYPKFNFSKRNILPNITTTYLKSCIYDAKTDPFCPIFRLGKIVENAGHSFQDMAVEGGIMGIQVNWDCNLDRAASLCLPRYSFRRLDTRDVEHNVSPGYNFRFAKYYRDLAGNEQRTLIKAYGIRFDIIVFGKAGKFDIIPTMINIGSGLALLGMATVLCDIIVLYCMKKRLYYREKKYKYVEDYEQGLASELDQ

[5] = biological target: T1, P2X purinoceptor 4 (Homo sapiens); assay: Negative allosteric modulation activity at human P2X4 receptor expressed in human 1321N1 cells assessed as ATP induced calcium response by measuring maximal ATP efficacy at 100 nM relative to control; type: cell-based; details: filed as negative allosteric modulator
[6] = biological target: T1, P2X purinoceptor 4 (Homo sapiens); assay: Negative allosteric modulation activity at human P2X4 receptor expressed in human 1321N1 cells assessed as ATP induced calcium response by measuring maximal ATP efficacy at 200 nM relative to control; type: cell-based
[7] = biological target: T2, P2X purinoceptor 2 (Homo sapiens) (UniProt Q9UBL9); assay: Negative allosteric modulation activity at human P2X2 receptor expressed in human 1321N1 cells assessed as reduction in intracellular Ca2+ influx incubated for 30 mins by Fura-2 AM based fluorescence assay relative to control; type: cell-based
T2 sequence (whole entry): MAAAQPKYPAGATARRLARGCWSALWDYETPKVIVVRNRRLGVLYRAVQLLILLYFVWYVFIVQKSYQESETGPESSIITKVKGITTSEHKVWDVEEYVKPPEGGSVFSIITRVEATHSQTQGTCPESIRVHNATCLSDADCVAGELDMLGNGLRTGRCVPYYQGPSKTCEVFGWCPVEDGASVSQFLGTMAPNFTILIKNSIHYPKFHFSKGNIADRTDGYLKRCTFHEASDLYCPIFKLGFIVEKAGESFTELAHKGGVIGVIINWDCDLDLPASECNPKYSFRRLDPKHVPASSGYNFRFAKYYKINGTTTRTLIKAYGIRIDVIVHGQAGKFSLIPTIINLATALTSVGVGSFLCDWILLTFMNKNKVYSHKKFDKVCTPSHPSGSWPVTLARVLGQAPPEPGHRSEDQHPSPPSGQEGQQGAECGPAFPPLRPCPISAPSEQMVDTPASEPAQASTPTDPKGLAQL

[8] = biological target: P2X purinoceptor 5 (Homo sapiens, UniProt Q93086); assay: Negative allosteric modulation activity at human P2X5 receptor expressed in human 1321N1 cells assessed as reduction in intracellular Ca2+ influx incubated for 30 mins by Fura-2 AM based fluorescence assay relative to control; type: cell-based
[9] = biological target: T3, P2X purinoceptor 7 (Homo sapiens, UniProt Q99572); assay: Negative allosteric modulation activity at human P2X7 receptor expressed in human 1321N1 cells assessed as reduction in intracellular Ca2+ influx incubated for 30 mins by Fura-2 AM based fluorescence assay; type: cell-based
T3 sequence (Q99572 whole entry): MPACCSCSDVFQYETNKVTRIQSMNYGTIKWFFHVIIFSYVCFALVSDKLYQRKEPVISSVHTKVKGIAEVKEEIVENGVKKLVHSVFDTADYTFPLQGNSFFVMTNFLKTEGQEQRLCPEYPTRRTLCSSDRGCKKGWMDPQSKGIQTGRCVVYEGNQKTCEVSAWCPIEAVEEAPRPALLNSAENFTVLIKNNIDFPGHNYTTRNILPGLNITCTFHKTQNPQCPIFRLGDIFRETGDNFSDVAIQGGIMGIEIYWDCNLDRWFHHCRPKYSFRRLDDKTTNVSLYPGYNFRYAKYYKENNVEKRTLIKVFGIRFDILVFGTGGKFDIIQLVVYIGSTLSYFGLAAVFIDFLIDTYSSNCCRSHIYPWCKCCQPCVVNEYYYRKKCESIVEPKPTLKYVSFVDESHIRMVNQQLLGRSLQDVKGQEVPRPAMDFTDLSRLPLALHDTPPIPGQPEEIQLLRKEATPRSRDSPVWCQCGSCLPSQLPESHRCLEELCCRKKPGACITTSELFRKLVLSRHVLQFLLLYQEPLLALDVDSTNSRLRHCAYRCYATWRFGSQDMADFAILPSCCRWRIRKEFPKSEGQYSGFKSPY

Chain of P2X purinoceptor 5 (Q93086 whole entry): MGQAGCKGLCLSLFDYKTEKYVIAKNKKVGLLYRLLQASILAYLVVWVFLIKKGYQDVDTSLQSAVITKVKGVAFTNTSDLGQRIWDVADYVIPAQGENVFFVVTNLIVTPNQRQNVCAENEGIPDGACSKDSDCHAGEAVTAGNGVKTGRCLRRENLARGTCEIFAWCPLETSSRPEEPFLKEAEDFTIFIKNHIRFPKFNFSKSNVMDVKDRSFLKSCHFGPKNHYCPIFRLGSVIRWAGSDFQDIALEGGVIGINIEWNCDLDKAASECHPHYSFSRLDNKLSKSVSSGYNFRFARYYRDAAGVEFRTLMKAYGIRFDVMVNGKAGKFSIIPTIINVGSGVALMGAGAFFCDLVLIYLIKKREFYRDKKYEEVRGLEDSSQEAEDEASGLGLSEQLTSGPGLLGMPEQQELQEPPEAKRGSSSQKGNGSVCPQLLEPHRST

Emax [4]: 68%
Emax [5]: 45%
Emax [6]: 32%
inhibition [7]: 30%
inhibition [8]: 12%
IC50 [9]: 25.2 µM
Structure (SMILES): CC(C)c1ccc(NC(=S)NC(=O)C23CC4CC(CC(C4)C2)C3)c(Br)c1
inhibition at 50 µM [1]: 9.26%
cytotoxicity at 24 h, 50 µM [2]: 4.28%
inhibition at 50 µM [3]: 6.54%
